Data taken from ChEMBL document CHEMBL2074157, “The modified dipeptide, enalapril, an angiotensin-converting enzyme inhibitor, is transported by the rat liver organic anion transport protein” (Hepatology, 1998).
Each block holds one molecule with its values, some of them ahead of it.

Key:
Type in all cases: functional, cell-based
[1] = molecular target: T1, Oatp1 (Solute carrier organic anion transporter family member 1A1) (Rattus norvegicus, UniProt P46720); experiment: TP_TRANSPORTER: inhibition of Enalapril uptake (Enalapril: ? uM, BSP-SG: 200 uM) in Oatp1-expressing HeLa cells; design: scale not given: the % may be the effect or the level left; conditions: human, probe Enalapril, read-out: Activity
T1 sequence (P46720 whole entry): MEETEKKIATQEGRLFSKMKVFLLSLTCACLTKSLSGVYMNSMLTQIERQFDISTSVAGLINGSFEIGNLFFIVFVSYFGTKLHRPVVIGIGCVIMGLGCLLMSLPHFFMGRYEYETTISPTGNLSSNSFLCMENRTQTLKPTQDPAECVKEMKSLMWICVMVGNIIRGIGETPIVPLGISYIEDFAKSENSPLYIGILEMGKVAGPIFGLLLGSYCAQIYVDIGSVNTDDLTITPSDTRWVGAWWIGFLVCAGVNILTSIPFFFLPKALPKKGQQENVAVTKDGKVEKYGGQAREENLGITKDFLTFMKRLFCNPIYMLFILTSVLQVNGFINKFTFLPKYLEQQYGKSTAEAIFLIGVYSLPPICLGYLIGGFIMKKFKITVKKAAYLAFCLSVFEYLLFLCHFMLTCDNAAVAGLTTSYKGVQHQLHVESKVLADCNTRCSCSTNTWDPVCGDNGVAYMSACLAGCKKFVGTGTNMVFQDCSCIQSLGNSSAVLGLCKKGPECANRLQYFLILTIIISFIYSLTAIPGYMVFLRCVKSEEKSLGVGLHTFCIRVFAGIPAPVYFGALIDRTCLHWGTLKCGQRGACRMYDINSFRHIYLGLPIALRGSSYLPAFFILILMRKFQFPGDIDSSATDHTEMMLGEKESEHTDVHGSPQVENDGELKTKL

[2] = molecular target: T2, Solute carrier organic anion transporter family member 1A1 (Rattus norvegicus, UniProt P46720); experiment: (§1) TP_TRANSPORTER: uptake in Oatp1-expressing HeLa cells; conditions: human
T2 sequence (P46720 whole entry): T1 sequence (P46720 whole entry)

[3] = molecular target: T1, Oatp1 (Solute carrier organic anion transporter family member 1A1); experiment: TP_TRANSPORTER: inhibition of Enalapril uptake (Enalapril: ? uM, E1S: 100 uM) in Oatp1-expressing HeLa cells; design: scale not given: the % may be the effect or the level left; conditions: human, probe Enalapril, read-out: Activity
[4] = molecular target: T2, Solute carrier organic anion transporter family member 1A1; experiment: TP_TRANSPORTER: inhibition of Enalapril uptake in Oatp1-expressing HeLa cells
[5] = substrate: CCOC(=O)[C@H](CCc1ccccc1)N[C@@H](C)C(=O)N1CCC[C@H]1C(=O)O; experiment: as §1

- activity at 200 µM [1]: 78%
- Activity [2]: substrate [+]
Molecule: N[C@@H](CCC(=O)N[C@@H](CSc1c(Br)c(Br)c2c(c1Br)C(=O)OC2(c1ccc(O)c(S(=O)(=O)O)c1)c1ccc(O)c(S(=O)(=O)O)c1)C(=O)NCC(=O)O)C(=O)O

- Activity [2]: is not a substrate [-]
Molecule: C[C@H](N[C@@H](CCc1ccccc1)C(=O)O)C(=O)N1CCC[C@H]1C(=O)O [ENALAPRILAT ANHYDROUS]

- activity at 100 µM [3]: 20%
- Activity [2]: substrate [+]
Molecule: C[C@]12CC[C@@H]3c4ccc(OS(=O)(=O)O)cc4CC[C@H]3[C@@H]1CCC2=O [ESTRONE SULFURIC ACID]

Second part, the molecule before the results:

Molecule: Cc1nccc2c1[nH]c1cc(O)ccc12.O=S(=O)(O)O [HARMOL SULFATE]
- Activity [2]: is not a substrate [-]

Molecule: O=C1OC(c2ccc(O)c(S(=O)(=O)O)c2)(c2ccc(O)c(S(=O)(=O)O)c2)c2c(Br)c(Br)c(Br)c(Br)c21 [SULFOBROMOPHTHALEIN SODIUM]
- Ki [4]: 1980 nM

B1: Solute carrier organic anion transporter family member 1A1 (Rattus norvegicus) (protein)
chain: T1 sequence (P46720 whole entry)
- Km [5]: 252 µM
